Measured values as given in PMC5862516 (PLoS Neglected Tropical Diseases, 2018).
Read-outs that look alike come from different tables or passages of the source.

Legend:
[1] = tested on: SOSV minigenome; test: microbe, parasite or virus in culture; details: Sosuga virus; for activity at 0.05 µM / activity at 0.5 µM / activity at 5 µM: Huh-7, 72 h, read-out: Minigenome activity (Relative ZsG fluorescence); for EC50: Huh-7, read-out: Minigenome Screen EC50
[2] = tested on: SOSV minigenome; details: Huh7 cells; for Minigenome activity (Relative ZsG fluorescence): relative to mock-treated controls
[3] = human, in vivo, 125 mg/kg/day; cited from earlier work
[4] = tested on: rSOSV/ZsG; test: microbe, parasite or virus in culture; format: cell-based; details: Sosuga virus, Huh-7, read-out: rSOSV/ZsG Screen EC50
[5] = tested on: rSOSV; test: microbe, parasite or virus in culture; format: cell-based; details: Sosuga virus, Huh-7, 48 h, read-out: EC50 (rSOSV protein immunofluorescence)
[6] = tested on: Huh7 cells; details: human
[7] = in vitro; details: human

Row | SMILES | activity at 0.05 µM [1] | activity at 0.5 µM [1] | activity at 5 µM [1] | also measured
1 | CO[C@@H]1[C@H](O)[C@@H](CO)O[C@H]1n1ccc(=O)[nH]c1=O [2′-O-Methyluridine] | 150% | 104% | 142% | –
2 | CC(C)C(=O)OC[C@@]1(N=[N+]=[N-])O[C@@H](n2ccc(N)nc2=O)[C@H](OC(=O)C(C)C)[C@@H]1OC(=O)C(C)C [Balapiravir (R1626), Balapiravir] | 105% | 93% | 90% | –
3 | CC(C)C(=O)OC[C@H]1O[C@@H](n2ccc(N)nc2=O)[C@](C)(F)[C@@H]1OC(=O)C(C)C [R-7128] | – | – | – | Minigenome activity (Relative ZsG fluorescence) ([2]; 50 nM): 0.84; Minigenome activity (Relative ZsG fluorescence) ([2]; 500 nM): 0.87; Minigenome activity (Relative ZsG fluorescence) ([2]; 5000 nM): 0.99
4 | [N-]=[N+]=N[C@]1(CO)O[C@@H](n2ccc(N)nc2=O)[C@H](O)[C@@H]1O [R-1479] | – | – | – | Minigenome activity (Relative ZsG fluorescence) ([2]; 50 nM): 0.91; Minigenome activity (Relative ZsG fluorescence) ([2]; 500 nM): 0.84; Minigenome activity (Relative ZsG fluorescence) ([2]; 5000 nM): 0.73
5 | CC[C@H]1OC(=O)[C@H](C)[C@@H](O[C@H]2C[C@@](C)(OC)[C@@H](O)[C@H](C)O2)[C@H](C)[C@@H](O[C@@H]2O[C@H](C)C[C@H](N(C)C)[C@H]2O)[C@](C)(O)C[C@@H](C)CN(C)[C@H](C)[C@@H](O)[C@]1(C)O [Azithromycin] | 102% | 106% | 111% | –
6 | [N-]=[N+]=Nc1nc2c(N)ncnc2n1[C@@H]1O[C@H](CO)[C@@H](O)[C@H]1O [8-Azidoadenosine] | 120% | 122% | 1% | –
7 | CC(=O)OC[C@H]1O[C@@H](n2ncc(=O)[nH]c2=O)[C@H](OC(C)=O)[C@@H]1OC(C)=O [6-azauridine triacetate] | – | – | – | plasma concentrations [3]: ≥ 100 µM
8 | COc1c(C)c2c(c(O)c1C/C=C(\C)CCC(=O)O)C(=O)OC2 [Mycophenolic acid] | 89% | 14% | 1% | EC50 [4]: 0.33 ± 0.04 µM; EC50 [5]: 0.48 µM; Minigenome Screen EC50 ([2]; ZsG fluorescence 72 hpt, normalized to mock-treated (DMSO) cells, listed as MPA): sub-micromolar; CC50 [6]: 1.74 ± 0.42 µM; viability [7]: > 80%; CC50 [7]: 1.7 µM
9 | Nc1ncnc2c1nnn2[C@@H]1O[C@H](CO)[C@@H](O)[C@H]1O [8-Azaadenosine] | 146% | 85% | 2% | –
10 | [N-]=[N+]=Nc1cn([C@@H]2O[C@H](CO)[C@@H](O)[C@H]2O)c(=O)[nH]c1=O [5-Azidouridine] | 114% | 104% | 107% | –
11 | COc1c(-c2ccc3cc(NS(C)(=O)=O)ccc3c2)cc(-n2ccc(=O)[nH]c2=O)cc1C(C)(C)C [ABT-333] | 127% | 108% | 105% | –
12 | Nc1ncn([C@@H]2O[C@H](CO)[C@@H](O)[C@H]2O)c(=O)n1 [5-Azacytidine] | 146% | 111% | 108% | –
13 | CC(C)OC(=O)[C@H](C)N[P@](=O)(OC[C@H]1O[C@@H](n2ccc(=O)[nH]c2=O)[C@](C)(F)[C@@H]1O)Oc1ccccc1 [PSI-7977] | 102% | 102% | 89% | –
14 | Cc1cn([C@H]2C=C[C@@H](CO)O2)c(=O)[nH]c1=O [Stavudine] | 126% | 104% | 115% | –
15 | CO[C@@H]1[C@H](O)[C@@H](CO)O[C@H]1n1ccc(N)nc1=O [2′-O-Methylcytidine] | 129% | 104% | 119% | –
16 | C[C@@]1(O)[C@H](O)[C@@H](CO)O[C@H]1n1ccc2c(N)ncnc21 [7-DMA] | – | – | – | Minigenome activity (Relative ZsG fluorescence) ([2]; 50 nM): 1.26; Minigenome activity (Relative ZsG fluorescence) ([2]; 500 nM): 1.02; Minigenome activity (Relative ZsG fluorescence) ([2]; 5000 nM): 1.06
17 | C[C@@]1(O)[C@H](O)[C@@H](CO)O[C@H]1n1ccc(N)nc1=O [2′-C-Methylcytidine] | 124% | 104% | 114% | –

Row | SMILES | activity at 0.05 µM [1] | activity at 0.5 µM [1] | activity at 5 µM [1] | also measured
18 | C[C@@]1(F)[C@H](O)[C@@H](CO)O[C@H]1n1ccc(N)nc1=O [PSI-6130] | – | – | – | Minigenome activity (Relative ZsG fluorescence) ([2]; 50 nM): 0.84; Minigenome activity (Relative ZsG fluorescence) ([2]; 500 nM): 0.85; Minigenome activity (Relative ZsG fluorescence) ([2]; 5000 nM): 0.91
19 | O=c1cnn([C@@H]2O[C@H](CO)[C@@H](O)[C@H]2O)c(=O)[nH]1 [6-azauridine] | 120% | 103% | 46% | EC50 [4]: 7.99 ± 1.32 µM; EC50 [5]: 8.9 µM; viability [7]: > 80%; CC50 [7]: > 50 µM; EC50 [1]: 5.17 ± 1.01 µM
20 | C[C@H](Cn1cnc2c(N)ncnc21)OCP(=O)(O)O [Tenofovir] | 110% | 106% | 107% | –
21 | Cc1cn([C@@H]2O[C@H](CO)[C@@H](O)[C@H]2O)c(=O)nc1N [5-Methylcytidine] | 124% | 110% | 125% | –
22 | O=c1[nH]c(=O)n([C@@H]2O[C@H](CO)[C@@H](O)[C@H]2O)cc1Br [5-Bromouridine] | 97% | 92% | 122% | –
23 | O=c1[nH]c(=O)n([C@@H]2O[C@H](CO)[C@@H](O)[C@H]2O)cc1F [5-fluorouridine] | 112% | 25% | 10% | Extent of minigenome signal inhibition and cytotoxicity ([2]; dose-response analysis): did not completely inhibit minigenome signal even at the highest concentrations evaluated; viability [7]: > 80%; CC50 [7]: > 50 µM; EC50 [1]: 0.29 ± 0.13 µM
24 | Cc1cn([C@H]2C[C@H](N=[N+]=[N-])[C@@H](CO)O2)c(=O)[nH]c1=O [Zidovudine] | 123% | 93% | 113% | –
25 | O=c1cnn([C@@H]2O[C@H](CO)[C@@H](O)[C@H]2O)c(=S)[nH]1 [6-Aza-2-thiouridine] | 128% | 95% | 110% | –
26 | C#C[C@@]1(O)[C@H](O)[C@@H](CO)O[C@H]1n1ccc2c(N)ncnc21 [NITD008] | – | – | – | Minigenome activity (Relative ZsG fluorescence) ([2]; 50 nM): 1.35; Minigenome activity (Relative ZsG fluorescence) ([2]; 500 nM): 1.07; Minigenome activity (Relative ZsG fluorescence) ([2]; 5000 nM): 1.13
27 | NC(=O)c1ncn([C@@H]2O[C@H](CO)[C@@H](O)[C@H]2O)n1 [Ribavirin] | 136% | 113% | 78% | EC50 [4]: 6.1 ± 0.09 µM; CC50 [7]: > 50 µM; EC50 [1]: 5.91 ± 0.85 µM
28 | NC(=O)c1nc(F)cnc1O [T-705] | – | – | – | Minigenome activity (Relative ZsG fluorescence) ([2]; 50 nM): 1.11; Minigenome activity (Relative ZsG fluorescence) ([2]; 500 nM): 1.17; Minigenome activity (Relative ZsG fluorescence) ([2]; 5000 nM): 1.05
29 | Nc1ncnc2c1ncn2[C@@H]1O[C@H](CO)C[C@H]1O [Cordycepin] | 128% | 104% | 101% | –
30 | O=c1[nH]c(=O)n([C@@H]2O[C@H](CO)[C@@H](O)[C@H]2O)cc1Cl [5-Chlorouridine] | 119% | 125% | 146% | –
31 | Nc1nc(Cl)nc2c1ncn2[C@@H]1O[C@H](CO)[C@@H](O)[C@H]1O [2-Chloroadenosine] | 148% | 143% | 145% | –
32 | Nc1ccn([C@@H]2O[C@H](CO)[C@@H](O)[C@H]2F)c(=O)n1 [2′-deoxy-2′-fluorocytidine] | 141% | 91% | 13% | EC50 [4]: 1.48 ± 0.22 µM; EC50 [5]: 4.09 µM; viability [7]: > 80%; CC50 [7]: > 50 µM; EC50 [1]: 1.31 ± 0.15 µM
33 | C[C@@]1(O)[C@H](O)[C@@H](CO)O[C@H]1n1ccc(=O)[nH]c1=O [2′-C-Methyluridine] | 132% | 101% | 125% | –
34 | Nc1ncnc2c([C@@H]3N[C@H](CO)[C@@H](O)[C@H]3O)c[nH]c12 [BCX-4430] | 133% | 105% | 118% | –
